The target of the assay is T1, PD-1/PD-L1 (Homo sapiens, UniProt Q9NZQ7).
T1 construct: purchased CisBio
As to the kind of experiment: PD1-PDL1 HTRF assay. Particulars: PD-1/PD-L1 homogenous time-resolved fluorescence (HTRF) binding assay; Tag1-PDL1 5 nM, Tag2-PD1 50 nM. The gist of the method:
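Compound (8 concentrations) was preincubated 15 min at room temperature with Tag1-PD-L1 and Tag2-PD-1, added as 5 nM and 50 nM solutions. Eu-labelled anti-Tag1 and XL665-labelled anti-Tag2 were then added for 1 h, and the 665/620 nm ratio (×10^4; excitation 320 nm) was fitted to the Hill equation for IC50.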
(In TR-FRET formats the signal depends on donor and acceptor labels being close together.)

T1 sequence (Q9NZQ7 19-238 limits assumed): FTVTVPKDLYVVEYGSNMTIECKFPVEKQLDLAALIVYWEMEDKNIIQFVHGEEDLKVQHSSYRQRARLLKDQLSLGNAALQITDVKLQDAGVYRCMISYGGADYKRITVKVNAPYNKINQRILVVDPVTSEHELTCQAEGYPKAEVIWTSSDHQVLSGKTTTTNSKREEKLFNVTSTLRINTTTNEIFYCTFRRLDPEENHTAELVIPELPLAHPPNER

`COc1nc(-c2cccc(-c3cccc(-c4ccn5c(-c6ccc(CNCCO)cc6)nnc5c4)c3C)c2C)ccc1CNCCO` [Example 77, 2-((4-(7-(3′-(5-(((2-hydroxyethyl)amino)methyl)-6-methoxypyridin-2-yl)-2,2′-dimethyl-[1,1′-biphenyl]-3-yl)-[1,2,4]triazolo[4,3-ai]pyridin-3-yl)benzyl)amino)ethan-1-ol]: the IC50 (as a rule, the midpoint of a concentration-inhibition curve) was at most 10 nM.
As for `COc1cc(-c2cccc(-c3cccc(-c4ccn5c(-c6ccc(CNCCO)cc6)nnc5c4)c3C)c2C)ccc1CNCCO` [Example 78, 2-((4-(7-(4″-(((2-hydroxyethyl)amino)methyl)-3″-methoxy-2,2′-dimethyl-[1,1′:3′,1″-terphenyl]-3-yl)-[1,2,4]triazolo[4,3-α]pyridin-3-yl)benzyl)amino)ethan-1-ol], the figure is at most 10 nM; as for `Cc1c(Nc2nccc3cc(CN4CC[C@@H](O)C4)cnc23)cccc1-c1cccc(-c2ccn3c(-c4ccc(CNC[C@@H]5CCC(=O)N5)cc4)nnc3c2)c1C` [Example 79, (S)-5-(((4-(7-(3′-((3-(((R)-3-hydroxypyrrolidin-1-yl)methyl)-1,7-naphthyridin-8-yl)amino)-2,2′-dimethyl-[1,1′-biphenyl]-3-yl)-[1,2,4]triazolo[4,3-a]pyridin-3-yl)benzyl)amino)methyl)pyrrolidin-2-one], at most 10 nM.
As for `Cc1c(Nc2nccc3cc(CN4CC[C@@H](O)C4)cnc23)cccc1-c1cccc(-c2ccn3c(-c4ccc(CN5CCC[C@@H]5C(=O)O)cc4)nnc3c2)c1C` [Example 80, (4-(7-(3′-((3-(((R)-3-hydroxypyrrolidin-1-yl)methyl)-1,7-naphthyridin-8-yl)amino)-2,2′-dimethyl-[1,1′-biphenyl]-3-yl)-[1,2,4]triazolo[4,3-α]pyridin-3-yl)benzyl)-D-proline], the figure is at most 10 nM; as for `Cc1c(Nc2nccc3cc(CN4CC[C@@H](O)C4)cnc23)cccc1-c1cccc(-c2ccn3c(-c4ccc(CNCCO)cc4)nnc3c2)c1C` [Example 81, (R)-1-((8-((3′-(3-(4-(((2-hydroxyethyl)amino)methyl)phenyl)-[1,2,4]triazolo[4,3-α]pyridin-7-yl)-2,2′-dimethyl-[1,1′-biphenyl]-3-yl)amino)-1,7-naphthyridin-3-yl)methyl)pyrrolidin-3-ol], at most 10 nM; as for `Cc1c(Nc2nccc3cc(CNCCO)cnc23)cccc1-c1cccc(-c2ccn3c(-c4ccc(CNCCO)cc4)nnc3c2)c1C` [Example 84, 2-((4-(7-(3′-((3-(((2-hydroxyethyl)amino)methyl)-1,7-naphthyridin-8-yl)amino)-2,2′-dimethyl-[1,1′-biphenyl]-3-yl)-[1,2,4]triazolo[4,3-a]pyridin-3-yl)benzyl)amino)ethan-1-ol], at most 10 nM.
Turning to `Cc1c(-c2ccc(CNCCO)cc2)cccc1-c1cccc(-c2ccn3c(NCCO)nnc3c2)c1C` [Example 85, 2-(((3″-(3-((2-hydroxyethyl)amino)-[1,2,4]triazolo[4,3-a]pyridin-7-yl)-2′,2″-dimethyl-[1,1′:3′,1″-terphenyl]-4-yl)methyl)amino)ethan-1-ol], the IC50 lay in the range of 100 to 1000 nM.
As for `Cc1c(-c2ccc(CNCCO)cc2)cccc1-c1cccc(-c2ccn3c(CNC[C@@H]4CCC(=O)N4)nnc3c2)c1C` [Example 86, (S)-5-((((7-(4″-(((2-hydroxyethyl)amino)methyl)-2,2′-dimethyl-[1,1′:3′,1″-terphenyl]-3-yl)-[1,2,4]triazolo[4,3-a]pyridin-3-yl)methyl)amino)methyl)pyrrolidin-2-one], the figure is 10 to 100 nM.
`Cc1c(-c2ccc(CNCCO)cc2)cccc1-c1cccc(-c2ccn3c(CN4CC[C@@H](C(=O)O)C4)nnc3c2)c1C` [Example 87, (R)-1-((7-(4″-(((2-hydroxyethyl)amino)methyl)-2,2′-dimethyl-[1,1′:3′,1″-terphenyl]-3-yl)-[1,2,4]triazolo[4,3-a]pyridin-3-yl)methyl)pyrrolidine-3-carboxylic acid] displayed an IC50 of 10 to 100 nM.
As for `Cc1c(-c2ccc(CNCCO)cc2)cccc1-c1cccc(-c2ccn3c(CN4CCC[C@@H]4C(=O)O)nnc3c2)c1C` [Example 88, ((7-(4″-(((2-hydroxyethyl)amino)methyl)-2,2′-dimethyl-[1,1′:3′,1″-terphenyl]-3-yl)-[1,2,4]triazolo[4,3-α]pyridin-3-yl)methyl)-D-proline], the figure is 10 to 100 nM; as for `Cc1c(-c2ccn3c(CNCCO)nnc3c2)cccc1-c1cccc(-c2ccn3c(CNCCO)nnc3c2)c1C` [Example 89, 2,2′-((((2,2′-dimethyl-[1,1′-biphenyl]-3,3′-diyl)bis([1,2,4]triazolo[4,3-a]pyridine-7,3-diyl))bis(methylene))bis(azanediyl))bis(ethan-1-ol)], 100 to 1000 nM; as for `Cc1c(-c2ccc(CNC[C@@H]3CCC(=O)N3)cc2)cccc1-c1cccc(-c2ccn3c(CNC[C@@H]4CCC(=O)N4)nnc3c2)c1C` [Example 90, (S)-5-((((2′,2″-dimethyl-3″-(3-(((((S)-5-oxopyrrolidin-2-yl)methyl)amino)methyl)-[1,2,4]triazolo[4,3-a]pyridin-7-yl)-[1,1′:3′,1″-terphenyl]-4-yl)methyl)amino)methyl)pyrrolidin-2-one], at most 10 nM.
As for `Cc1c(-c2ccc(CNCCO)cc2)cccc1-c1cccc(-c2ccn3c(CNCCO)nnc3c2)c1C` [Example 91, 2-(((7-(4″-(((2-hydroxyethyl)amino)methyl)-2,2′-dimethyl-[1,1′:3′,1″-terphenyl]-3-yl)-[1,2,4]triazolo[4,3-α]pyridin-3-yl)methyl)amino)ethan-1-ol], the figure is 10 to 100 nM; as for `Cc1c(NC(=O)c2ccc(CNCCO)cn2)cccc1-c1cccc(-c2ccn3c(CNCCO)nnc3c2)c1C` [Example 92, 5-(((2-hydroxyethyl)amino)methyl)-N-(3′-(3-(((2-hydroxyethyl)amino)methyl)-[1,2,4]triazolo[4,3-a]pyridin-7-yl)-2,2′-dimethyl-[1,1′-biphenyl]-3-yl)picolinamide], at most 10 nM; as for `Cc1c(NC(=O)c2ccc(CNCCO)cc2)cccc1-c1cccc(-c2ccn3c(CNCCO)nnc3c2)c1C` [Example 93, 4-(((2-hydroxyethyl)amino)methyl)-N-(3′-(3-(((2-hydroxyethyl)amino)methyl)-[1,2,4]triazolo[4,3-α]pyridin-7-yl)-2,2′-dimethyl-[1,1′-biphenyl]-3-yl)benzamide], 100 to 1000 nM.
As for `COc1nc(-c2cccc(-c3cccc(-c4ccc5nnc(CNC[C@@H]6CCC(=O)N6)n5c4)c3C)c2C)cnc1CNC[C@@H]1CCC(=O)N1` [Example 94, (S)-5-((((5-(2,2′-dimethyl-3′-(3-(((((S)-5-oxopyrrolidin-2-yl)methyl)amino)methyl)-[1,2,4]triazolo[4,3-a]pyridin-6-yl)-[1,1′-biphenyl]-3-yl)-3-methoxypyrazin-2-yl)methyl)amino)methyl)pyrrolidin-2-one], the figure is at most 10 nM.
Turning to `Cc1c(NC(=O)c2ccc(CNCCO)cn2)cccc1-c1cccc(-c2ccn3c(CNC[C@@H]4CCC(=O)N4)nnc3c2)c1C` [Example 95, (S)—N-(2,2′-dimethyl-3′-(3-((((5-oxopyrrolidin-2-yl)methyl)amino)methyl)-[1,2,4]triazolo[4,3-a]pyridin-7-yl)-[1,1′-biphenyl]-3-yl)-5-(((2-hydroxyethyl)amino)methyl)picolinamide], the IC50 is at most 10 nM.
In turn, `OCCNCc1ccc(-c2cccc(-c3cccc(-c4ccn5c(CNCCO)nnc5c4)c3Cl)c2Cl)cc1` [Example 96, 2-(((2′,2″-dichloro-3″-(3-(((2-hydroxyethyl)amino)methyl)-[1,2,4]triazolo[4,3-a]pyridin-7-yl)-[1,1′:3′,1″-terphenyl]-4-yl)methyl)amino)ethan-1-ol] registered an IC50 of at most 10 nM.
Consider `O=C1CC[C@@H](CNCc2ccc(-c3cccc(-c4cccc(-c5ccn6c(CNC[C@@H]7CCC(=O)N7)nnc6c5)c4Cl)c3Cl)cc2)N1` [Example 97, (S)-5-((((21,2″-dichloro-3″-(3-(((((S)-5-oxopyrrolidin-2-yl)methyl)amino)methyl)-[1,2,4]triazolo[4,3-α]pyridin-7-yl)-[1,1′:3′,1″-terphenyl]-4-yl)methyl)amino)methyl)pyrrolidin-2-one], for which the half-maximal inhibitory concentration (IC50) is at most 10 nM.
`Cc1c(-c2ccc(CNCCO)cc2)cccc1-c1cccc(-c2ccn3nc(CNCCO)nc3c2)c1C` [Example 98, 2-(((7-(4″-(((2-hydroxyethyl)amino)methyl)-2,2′-dimethyl-[1,1′:3′,1″-terphenyl]-3-yl)-[1,2,4]triazolo[1,5-a]pyridin-2-yl)methyl)amino)ethan-1-ol] came in with an IC50 of 10 to 100 nM.
As to `Cc1c(-c2ccc(CNC[C@@H]3CCC(=O)N3)cc2)cccc1-c1cccc(-c2ccn3nc(CNC[C@@H]4CCC(=O)N4)nc3c2)c1C` [Example 99, (S)-5-((((21,2″-dimethyl-3″-(2-(((((S)-5-oxopyrrolidin-2-yl)methyl)amino)methyl)-[1,2,4]triazolo[1,5-a]pyridin-7-yl)-[1,1′:3′,1″-terphenyl]-4-yl)methyl)amino)methyl)pyrrolidin-2-one], the IC50 was at most 10 nM.
`Cc1c(NC(=O)c2ccc(CNCCO)cn2)cccc1-c1cccc(-c2ccn3nc(CNCCO)nc3c2)c1C` [Example 100, 5-(((2-hydroxyethyl)amino)methyl)-N-(3′-(2-(((2-hydroxyethyl)amino)methyl)-[1,2,4]triazolo[1,5-a]pyridin-7-yl)-2,2′-dimethyl-[1,1′-biphenyl]-3-yl)picolinamide] registered an IC50 of at most 10 nM.
With `Cc1c(NC(=O)c2ccc(CNCCO)cc2)cccc1-c1cccc(-c2ccn3nc(CNCCO)nc3c2)c1C` [Example 101, 4-(((2-hydroxyethyl)amino)methyl)-N-(3′-(2-(((2-hydroxyethyl)amino)methyl)-[1,2,4]triazolo[1,5-a]pyridin-7-yl)-2,2′-dimethyl-[1,1′-biphenyl]-3-yl)benzamide] the figure was at most 10 nM.

For the origin of these results see patent publication US20260265248A1, “NOVEL PD-L1 INHIBITORS” (AFFIRMA BIOTECH S. L., priority 2023, published 2026).
